Here are results for 15 compounds from patent US12037324B2, “Biarylmethyl heterocycles” (Université de Montréal, priority 2016, dated 2024).

In assay [1] the target is T1, AGTR1 (Homo sapiens, UniProt P30556).
T1 construct: host or cells: Pathunter CHO-K1 AGTR1 β-arrestin cell line (CHO-K1)
T1 sequence (P30556 1-359): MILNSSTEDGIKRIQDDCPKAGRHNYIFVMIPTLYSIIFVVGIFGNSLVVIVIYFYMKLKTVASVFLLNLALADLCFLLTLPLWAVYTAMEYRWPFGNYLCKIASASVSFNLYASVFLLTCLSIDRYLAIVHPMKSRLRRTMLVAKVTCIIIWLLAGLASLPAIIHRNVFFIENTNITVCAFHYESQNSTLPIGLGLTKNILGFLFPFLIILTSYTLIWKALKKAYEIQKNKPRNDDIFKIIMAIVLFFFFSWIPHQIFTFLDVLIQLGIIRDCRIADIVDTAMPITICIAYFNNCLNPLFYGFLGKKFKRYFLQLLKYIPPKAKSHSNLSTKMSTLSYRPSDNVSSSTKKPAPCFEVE
The experiment in a line: DiscoveRx β-arrestin2 recruitment assay (enzyme complementation, Pathunter CHO-K1 AGTR1 β-arrestin cell line). The format is cell-based. The settings on record: DiscoveRx β-arrestin2 recruitment; for DiscoveRx β-arrestin2 Ymax (%): maximal response. The essentials: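 Chemiluminescent enzyme-complementation read-out of β-arrestin2 recruitment to AGTR1 in engineered CHO-K1 cells after 90 min compound exposure at 37° C. Values are 4-parameter logistic EC50s in agonist mode, IC50s in antagonist mode, with efficacy relative to the maximal All response.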
(In general: Arrestin recruitment assays detect the binding of arrestin to an activated receptor.)

In assay [2] the target is T1, AGTR1. Put plainly: DiscoveRx IP1 accumulation assay (HTRF), agonist mode, Pathunter CHO-K1 AGTR1 β-arrestin cell line. The format is cell-based. Conditions: for EC50: read-out: IP-1 EC50. The essentials:
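Agonist mode in CHO-K1 AGTR1 β-arrestin cells plated 14-16 h before; compounds at varying concentrations for 90 min at 37° C, IP1 accumulation read by HTRF (D2-conjugate and anti-IP1 cryptate, 20 min room temperature). EC50 from 4-parameter logistic fit; activity given as percentage of maximal AII effect.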

Assay [3] addresses T2, hAT1R (Homo sapiens, UniProt P30556).
T2 sequence (P30556 1-359): T1 sequence (P30556 1-359)
Put plainly: cell-based. Conditions: agonist mode; for EC50: read-out: BRET P63 EC50. Background: Bioluminescence resonance energy transfer reports proximity on the nanometre scale.

Assay [4] concerns the target T2, hAT1R. The experiment in a line: cell-based.
The mark [5] stands for this setting: section of the 42nd table ending at r951, example numbering restarts after the DiscoveRx section, read-out: β-arrestin2 EC50.
The mark [6] stands for this setting: Low AT1R Expression, read-out: BRET β-Arrestin2 Low AT1R Expression EC50.

Where two headings read alike, the source gives them in different places. A value given as a limit tells only on which side of the number the result lay.

In general, EC50 refers to the concentration giving half of the maximal effect. As for `CCc1nc2c(C)cc(C)nc2n1Cc1ccc(-c2cc(-n3cc4ccccc4n3)ccc2-c2nnn[nH]2)cc1` [Example 216, 3-((5′-(2H-Indazol-2-yl)-2′-(1H-tetrazol-5-yl)-[1,1′-biphenyl]-4-yl)methyl)-2-ethyl-5,7-dimethyl-3H-imidazo[4,5-b]pyridine], the concentration for a half-maximal effect (EC50) was 9.6 nM at AGTR1 [1], 29.1 nM at AGTR1 [2], 1.8 nM at hAT1R [3] and 6.6 nM on hAT1R [4] (setting [5]). Also, the “DiscoveRx β-arrestin2 Ymax (%)” value at AGTR1 [1] was found to be 33.4%. On AGTR1 [2], the “IP-1 Ymax (%)” value worked out at 10.6%. Also, the “BRET P63 Ymax” value on hAT1R [3] came to 10.1%.
Consider `CCc1nc2c(C)cc(C)nc2n1Cc1ccc(-c2cc(-c3ccccn3)ccc2C(=O)O)cc1` [Example 192, 4′-((2-ethyl-5,7-dimethyl-3H-imidazo[4,5-b]pyridin-3-yl)methyl)-5-(pyridin-2-yl)biphenyl-2-carboxylic acid], for which the EC50 on AGTR1 [1] is 94.3 nM; at AGTR1 [2], 223 nM; at hAT1R [3], above 100000 nM; at hAT1R [4] (setting [5]), 127 nM. For the same compound, the “DiscoveRx β-arrestin2 Ymax (%)” value on AGTR1 [1] is reported as 45.1%. For the same compound, the “IP-1 Ymax (%)” value at AGTR1 [2] is given as 11.1%.
For the compound `CCc1nc2c(C)cc(C)nc2n1Cc1ccc(-c2cc(C3CCCCCC3)ccc2-c2nn[nH]n2)cc1` [Example 81], the EC50 on AGTR1 [1] is 38.3 nM; on AGTR1 [2], above 100000 nM; at hAT1R [3], above 100000 nM; at hAT1R [4] (setting [6]) it was 38.3 nM. Further, the “DiscoveRx β-arrestin2 Ymax (%)” value on AGTR1 [1] is reported as 17.6%. Further, on hAT1R [4] (Low AT1R Expression), the “BRET β-Arrestin2 Low AT1R Expression Ymax (%)” value stood at 16.3%.
Turning to `CCCCn1cc(-c2ccc(-c3nnn[nH]3)c(-c3ccc(Cn4c(CC)nc5c(C)cc(C)nc54)cc3)c2)nn1` [Example 241], at AGTR1 [1], the EC50 came to 41.5 nM and the “DiscoveRx β-arrestin2 Ymax (%)” value was 44.3%. Besides, at AGTR1 [2], the “IP-1 Ymax (%)” value was 12.8% and the EC50 turned out to be 150 nM. Further, on hAT1R [3], the “BRET P63 Ymax” value is reported as 17.5% and the EC50 worked out at 40.5 nM. Also, the EC50 at hAT1R [4] (setting [5]) turned out to be 50.2 nM.
Consider `Cc1ccnc(-c2ccc(-c3nn[nH]n3)c(-c3ccc(CN4C(=O)C5(CCCC5)N=C4C(C)C)cc3)c2)c1` [Example 118], for which, at AGTR1 [1], the response was half-maximal at 66 nM (EC50) and the “DiscoveRx β-arrestin2 Ymax (%)” value came to 50.0%. Moreover, on AGTR1 [2], the “IP-1 Ymax (%)” value was 17.1% and the EC50 was determined as 155 nM. Also, at hAT1R [3], the “BRET P63 Ymax” value was 21.8% and the EC50 was 102 nM. Further, the “BRET β-Arrestin2 Low AT1R Expression Ymax (%)” value at hAT1R [4] (Low AT1R Expression) turned out to be 78.7%. On hAT1R [4] (setting [6]), the EC50 stood at 173 nM.
For the compound `CCc1nc2c(C)cc(C)nc2n1Cc1ccc(-c2cc(-c3cc(C(F)F)ccn3)ccc2-c2nn[nH]n2)cc1` [Example 67], the EC50 on AGTR1 [1] stood at 19.3 nM; on AGTR1 [2], 26.5 nM; on hAT1R [3] it was 7.3 nM; on hAT1R [4] (setting [6]), 14.5 nM. The “DiscoveRx β-arrestin2 Ymax (%)” value at AGTR1 [1] was 30.9%. Further, the “IP-1 Ymax (%)” value at AGTR1 [2] came to 10.2%. Besides, the “BRET P63 Ymax” value at hAT1R [3] turned out to be 14.3%. Also, the “BRET β-Arrestin2 Low AT1R Expression Ymax (%)” value at hAT1R [4] (Low AT1R Expression) was 40.7%.
As for `CCc1nc2c(C)cc(C)nc2n1Cc1ccc(-c2cc(-n3ccc(C)n3)ccc2-c2nnn[nH]2)cc1` [Example 218], the EC50 on AGTR1 [1] is 45.9 nM; at AGTR1 [2], 33.3 nM; at hAT1R [3], above 10000 nM; on hAT1R [4] (setting [5]) it was above 10000 nM. For the same compound, the “DiscoveRx β-arrestin2 Ymax (%)” value at AGTR1 [1] worked out at 21.5%. Moreover, the “IP-1 Ymax (%)” value at AGTR1 [2] is 4.6%.
In the case of `CCc1nc2c(C)cc(C)nc2n1Cc1ccc(-c2cc(C3CCCOC3)ccc2-c2nn[nH]n2)cc1` (centres unmarked) [Example 79], the EC50 on AGTR1 [1] was 286 nM; on AGTR1 [2], 499 nM; on hAT1R [3] it was above 10000 nM; at hAT1R [4] (setting [6]) it was 464 nM. Also, the “DiscoveRx β-arrestin2 Ymax (%)” value at AGTR1 [1] is 31.7%. For the same compound, the “IP-1 Ymax (%)” value at AGTR1 [2] worked out at 9.4%. The “BRET β-Arrestin2 Low AT1R Expression Ymax (%)” value on hAT1R [4] (Low AT1R Expression) is reported as 21.1%.
`CCC1=NC2(CCOC2)C(=O)N1Cc1ccc(-c2cc(-c3ccccc3)ccc2-c2nn[nH]n2)cc1` (single isomer, unassigned) [Example 165]: at AGTR1 [1], the EC50 was 56.8 nM and the “DiscoveRx β-arrestin2 Ymax (%)” value came to 45.7%. In addition, at AGTR1 [2], the “IP-1 Ymax (%)” value turned out to be 17.7% and the EC50 worked out at 192 nM. On hAT1R [3], the “BRET P63 Ymax” value was 14.1% and the EC50 is 262 nM. The EC50 on hAT1R [4] (setting [5]) stood at 281 nM.
Take `CCCC1=NC2(CCOC2)C(=O)N1Cc1ccc(-c2cc(-c3ccccc3)ccc2-c2nnn[nH]2)cc1` (single isomer, unassigned) [Example 162]: the EC50 was 147 nM on AGTR1 [1], 235 nM on AGTR1 [2], above 10000 nM on hAT1R [3] and 373 nM at hAT1R [4] (setting [5]). The “DiscoveRx β-arrestin2 Ymax (%)” value on AGTR1 [1] is recorded as 31.9%. Moreover, at AGTR1 [2], the “IP-1 Ymax (%)” value was determined as 8.9%.
As for `CCC1=NC2(CCOC2)C(=O)N1Cc1ccc(-c2cc(-c3ccccc3)ccc2-c2nnn[nH]2)cc1` (single isomer, unassigned) [Example 168], the EC50 on AGTR1 [1] is 352 nM; at AGTR1 [2] it was 826 nM; at hAT1R [3] it was above 10000 nM; at hAT1R [4] (setting [5]) it was 998 nM. Further, the “DiscoveRx β-arrestin2 Ymax (%)” value at AGTR1 [1] is recorded as 34.5%. Besides, the “IP-1 Ymax (%)” value on AGTR1 [2] turned out to be 13.8%.
As for `CCCC1=NC2(CCCC2)C(=O)N1Cc1ccc(-c2cc(-c3cc(OC)ccn3)ccc2-c2nn[nH]n2)cc1` [Example 115, 3-((5′-(4-methoxypyridin-2-yl)-2′-(2H-tetrazol-5-yl)-[1,1′-biphenyl]-4-yl)methyl)-2-propyl-1,3-diazaspiro[4.4]non-1-en-4-one], the half-maximal effective concentration (EC50) worked out at 13.3 nM at AGTR1 [1], 39.3 nM on AGTR1 [2], 11.9 nM on hAT1R [3] and 16.8 nM on hAT1R [4] (setting [6]). For the same compound, at AGTR1 [1], the “DiscoveRx β-arrestin2 Ymax (%)” value is on record as 30.8%. Besides, the “IP-1 Ymax (%)” value on AGTR1 [2] was found to be 13.6%. On hAT1R [3], the “BRET P63 Ymax” value was determined as 22.1%. In addition, on hAT1R [4] (Low AT1R Expression), the “BRET β-Arrestin2 Low AT1R Expression Ymax (%)” value is given as 53.3%.
As to `CCCCC1=NC2(CCOC2)C(=O)N1Cc1ccc(-c2cc(-c3cccc(C)c3)ccc2-c2nnn[nH]2)cc1` (single isomer, unassigned) [Example 153], the EC50 is 28.7 nM on AGTR1 [1], 229 nM at AGTR1 [2], above 100000 nM at hAT1R [3] and 54.1 nM on hAT1R [4] (setting [5]). In addition, the “DiscoveRx β-arrestin2 Ymax (%)” value on AGTR1 [1] came out at 19.6%. Moreover, the “IP-1 Ymax (%)” value at AGTR1 [2] is given as 6.0%.
For `CCCCC1=NC2(CCOC2)C(=O)N1Cc1ccc(-c2cc(-c3cccc(C)c3)ccc2-c2nnn[nH]2)cc1` (single isomer, unassigned) [Example 152], the EC50 at AGTR1 [1] was 11.6 nM; on AGTR1 [2] it was 30.7 nM; on hAT1R [3], above 100000 nM; at hAT1R [4] (setting [5]), 21.8 nM. The “DiscoveRx β-arrestin2 Ymax (%)” value on AGTR1 [1] amounted to 28.6%. The “IP-1 Ymax (%)” value on AGTR1 [2] was 7.0%.
For `CCc1nc2c(C)cc(C)nc2n1Cc1ccc(-c2cc(-n3ncc4ccccc43)ccc2-c2nnn[nH]2)cc1` [Example 215, 3-((5′-(1H-Indazol-1-yl)-2′-(1H-tetrazol-5-yl)-[1,1′-biphenyl]-4-yl)methyl)-2-ethyl-5,7-dimethyl-3H-imidazo[4,5-b]pyridine], the EC50 on AGTR1 [1] was 5.1 nM; at AGTR1 [2], 17.6 nM; on hAT1R [3], 4 nM; on hAT1R [4] (setting [5]), 4.1 nM. Also, the “DiscoveRx β-arrestin2 Ymax (%)” value on AGTR1 [1] is reported as 46.1%. At AGTR1 [2], the “IP-1 Ymax (%)” value is 17.3%. Also, the “BRET P63 Ymax” value on hAT1R [3] is 22.7%.
